Reference: patent US8618068B2, “Methods and low dose regimens for treating red blood cell disorders” (priority 2009, dated 2013)

Assays:
fetal hemoglobin (HbF) = experiment: Phase 2 trial in thalassemia intermedia patients, HbF and total hemoglobin; format: in vivo, human
Description: A randomized, doubled blind, placebo-controlled, multiple ascending dose Phase I/II trial was conducted in 21 adult patients with beta thalassemia intermedia, including 14 patients with HbE/β^0 thalassemia from Thailand and 7 patients with β^+/β^0 thalassemia (including 12 different beta globin gene mutations). Study medication was taken as a single daily dose of DMB for 8 weeks followed minimally by a 4 week break and follow-up period. Four ascending dose levels (10, 20, 30, and 40 mg/kg/day) were sequentially evaluated in 4 dose level cohorts after the preceding dose and schedule were determined safe by an independent and unblinded Safety Monitoring Committee.
All treatment groups had two placebo patients; placebo patients in the first dose group were randomized to treatment in the second dose group. Ten patients in Thailand (all HbE type) were treated with 10 mg/kg (8 active/2 placebo) followed by eight patients in Thailand who were treated followed by 30 mg/kg (6 active/2 placebo). Eleven patients (4 That, 7 Lebanese) were treated with 20 mg/kg followed by 40 mg/kg (9 active [6 Lebanese/3 That]/2 placebo). Patients ranged in age from 17 to 49 with a median age of 31 and were comprised for 16 females and 5 males.
Patients were monitored every 2 weeks for laboratory studies, physical examinations, and adverse events. Further, patients were followed for hematologic parameters primarily focusing on hemoglobin and fetal hemoglobin (HbF). In addition, pharmacokinetic samples were obtained on Day 0 and 13, at pre-dose and 2, 4, 6, 8, 12, and 24 hours post-dosing. Hemoglobin was measured at each site using standard hematology equipment. HbF was measured using Varian HPLC. […] Adverse events in treated subjects included headache, upper respiratory infection, pyrexia, fatigue, nausea, and dizziness, but the rates of such events were not markedly different from those observed in the placebo-treated subjects.

[1] = Cardiovascular and hemodynamic effects, 28-Day Beagle dog study; format: in vivo, Beagle dogs
Description: Cardiovascular safety pharmacology assessments included an in vitro screen to evaluate the effects of DMB on cardiac ion channel and an in vivo evaluation of cardiovascular and hemodynamic effects in Beagle dogs. Electrophysiologic effects were evaluated in laboratory studies utilizing voltage-clamped human embryonic kidney cells transformed by adenovirus cDNA and transfected with cDNA in order to stably express the human ether a-go-go related gene (hERG). The effect on cellular hERG channels was evaluated at DMB concentrations up to 1 mM (138 μg/mL).

[2] = Phase 1 repeat-dose clinical study, safety; format: in vivo, human
Description: DMB was evaluated in a phase 1, placebo-controlled, randomized, repeat dose clinical study that evaluated tolerability, safety, and pharmacokinetics in healthy volunteers. A total of 41 subjects (31 receiving active drug and 10 receiving placebo) completed 14 consecutive days of study medication at daily dose levels of 5, 10 or 15 mg/kg (10 subjects received placebo). Given the importance of iron in red blood cell production, and the requirement for iron supplementation for induction of HbF with other erythropoietic agents, subjects at all 3 dose levels received oral ferrous gluconate on the study medication days. DMB was administered with food to all but one group (5 mg/kg, cohort 1). Subjects were admitted and observed for 24 hours following initial dosing. Thereafter, the study drug was taken once per day at home, except for the last study day. The subjects were monitored weekly for 6 weeks. Thirty-seven subjects completed the study and 4 subjects dropped out due to conflicts. Safety and PK data are available on these subjects.
The treatment groups included: Cohort 1: 5 mg/kg fasting, 6 active, 2 placebo; Cohort 2: 5 mg/kg with food, 7 active, 2 placebo (3 drop outs); Cohort 3: 5 mg/kg with food and iron supplements, 6 active, 2 placebo (1 drop out); Cohort 4: 10 mg/kg with food and iron supplements, 6 active, 2 placebo; and Cohort 5: 15 mg/kg with food and iron supplements, 6 active, 2 placebo. Subjects in Cohorts 3, 4, and 5 received a single daily dose of ferrous gluconate (325 mg). The iron supplement was administered to evaluate study medication tolerability when taken with iron. No subjects discontinued due to AEs or safety concerns. Fewer subjects reported an event in the highest dose cohort following eating a meal ([…]) than were reported in the lower dose cohorts ([…], 5 and 10 mg/kg).
The AEs observed in this study are described in Table 11. All events were assessed as mild by the Principal Investigator and resolved either on study or post study. No SAEs were reported. Two subjects had transient lymphadenopathy that were not considered related to study medication. No laboratory abnormalities of significance were noted except one patient developed a urinary tract infection. No clinically significant ECG abnormalities were noted.

CCC(C)(C)C(=O)[O-].[Na+] [DMB, Sodium 2,2-dimethylbutyrate]
patients in whom total hemoglobin increased (fetal hemoglobin (HbF); 20 mg/kg group): 2 out of 9 | dose level with the largest increase in HbF (fetal hemoglobin (HbF); Day 55): 20 mg/kg | change in HbF at Day 55 (fetal hemoglobin (HbF); all 4 DMB dose groups, compared to minimal change in placebo): median increases | Median change from baseline to Day 55 in total hemoglobin (fetal hemoglobin (HbF); all groups including placebo): decreases | QTc prolongation, average ([1]; 500 mg/kg/day, female Beagle dogs only, not statistically different from baseline (p>0.05)): 14% | effects on systemic hemodynamics ([1]; 28-Day study): No effects | SAEs reported ([2]; 5, 10, 15 mg/kg for 14 days): No SAEs | dose limiting toxicity ([2]; 5, 10, 15 mg/kg for 14 days): No dose limiting toxicity | tolerability ([2]; 5 to 15 mg/kg/day for 14 consecutive days): well-tolerated | Subject incidence of Abdominal pain ([2]; DMB N = 31): 3% | Subject incidence of Contusion of elbow ([2]; DMB N = 31): 3% | Subject incidence of Diarrhea ([2]; DMB N = 31): 6% | Subject incidence of Fatigue ([2]; DMB N = 31): 3% | Subject incidence of Flatulence ([2]; DMB N = 31): 6% | Subject incidence of Gastritis ([2]; DMB N = 31): 3% | Subject incidence of Gastroenteritis ([2]; DMB N = 31): 3% | Subject incidence of Headache ([2]; DMB N = 31): 23% | Subject incidence of Light-headedness ([2]; DMB N = 31): 3% | Subject incidence of Lymphadenopathy, inguinal ([2]; DMB N = 31): 3% | Subject incidence of Menstrual cramps ([2]; DMB N = 31): 6% | Subject incidence of Nausea ([2]; DMB N = 31): 6% | Subject incidence of Pharyngeal erythema ([2]; DMB N = 31): 3% | Subject incidence of Pharyngitis ([2]; DMB N = 31): 6% | Subject incidence of Pregnancy ([2]; DMB N = 31): 3% | Subject incidence of Reflux esophagitis ([2]; DMB N = 31): 3% | Subject incidence of Spasm, esophageal ([2]; DMB N = 31): 3% | Subject incidence of Sunburn ([2]; DMB N = 31): 3% | Subject incidence of Upper respiratory infection ([2]; DMB N = 31): 3% | Subject incidence of Urinary tract infection ([2]; DMB N = 31): 3% | Subject incidence of Vaginal candidiasis ([2]; DMB N = 31): 3%
